Measured values from patent publication US9006252B2, “Fused multicyclic compounds as protein kinase inhibitors” (National Health Research Institutes, priority 2008, dated 2015).
Several values for one entry are separate records, joined by “and”; a condition that tells them apart may be missing. Identical values can stand only once. Like-named read-outs stand apart in the source and are kept apart here.

How the values were obtained:
[1] = tested on: HCT-116 cells; assay: HCT-116 cell viability, MTS assay; format: cell-based; settings: Homo sapiens, HCT-116, 96 h, read-out: IC50 values, HCT-116 cell viability
Experimental: HCT-116 cell viability was examined by the MTS assay (Promega, Madison, Wis., USA). 2000 HCT-116 cells in 100 μL McCoy's 5a medium were seeded in each well of a 96-well plate. After 96-h incubation with a test compound, the cells were incubated with 20 μL of a MTS/PMS mixture (MTS/PMS ratio: 20:1) for 2 h at 37° C. in a humidified incubator with 5% CO2 to allow viable cells to convert the tetrazolium salt (MTS) into formazan. The amount/concentration of formazan, which indicates the number of live cells, was determined by measuring the absorbance at 490 nm using a PerkinElmer Victor2 plate reader (PerkinElmer, Shelton, Conn., USA).

[2] = molecular target: T1, Aurora A (Homo sapiens, UniProt O14965); assay: Aurora Kinase A luminescent kinase assay (Kinase-Glo); format: biochemical; settings: IC50 values (concentration of a test compound at which activity of 50% of Aurora A is inhibited), GST-tAurora A (123-401aa) fusion protein
T1 construct: GST-tAurora A (123-401aa) fusion protein obtained above; made in house; host or cells: Sf9 insect cells (baculovirus, pBacPAK8)
T1 sequence (O14965 123-401): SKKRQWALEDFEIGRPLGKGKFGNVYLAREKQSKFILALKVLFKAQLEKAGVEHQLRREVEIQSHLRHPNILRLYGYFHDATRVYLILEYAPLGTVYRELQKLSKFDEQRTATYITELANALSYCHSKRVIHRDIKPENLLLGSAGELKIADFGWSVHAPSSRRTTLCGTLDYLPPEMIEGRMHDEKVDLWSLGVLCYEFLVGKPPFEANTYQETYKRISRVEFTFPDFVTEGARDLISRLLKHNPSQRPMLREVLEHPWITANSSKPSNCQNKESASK
Experimental: The Aurora A catalytic domain with an N-terminal GST tag was constructed in pBacPAK8 plasmid and expressed in sf9 cells. […] To concentrate GST-tAurora A, buffer was replaced with Tris buffer (100 mM Tris (pH 7.5), 300 mM NaCl, 1 mM EDTA, 4 mM DTT) using Amicon ultra-15 (MWCO:30K, Millipore) to 2.4 mg/ml. After the addition of equal volume of glycerol and 0.04% Triton X-100, the proteins were stored aliquoted at −80° C.
Briefly, a test compound, enzyme, substrate-tetra(LRRWSLG), DTT and ATP were dissolved in Aur buffer (50 mM Tris-HCl pH 7.4, 10 mM NaCl, 10 mM MgCl2, and 100 μg/ml BSA) individually before the assay. […] 5 μM ATP (5 μl), 1 mM DTT (5 μl) and 0.1 mM tetra(LRRWSLG) peptide substrate (5 μl) were added into the reactions of test compounds and GST-tAurora A. The reactions were incubated at 37° C. for 90 min. 50 μl of Kinase-Glo Plus Reagent (V3771, Promega) was added into the reactions, followed by the incubation at 25° C. for 20 min.

SMILES	IC50 ([1]; 96-h incubation, MTS)	IC50 [2]	IC50 [1]
N#Cc1cnc2cc(O)ccc2c1NCCc1ccc(NC(=O)Nc2ccccc2)cc1 [Compound 229]	101 to 850 nM		
COc1cc2ncnc(NCCc3ccc(NC(=O)Nc4ccccc4)cc3)c2cc1OC [Compound 1, 1-(4-(2-(6,7-dimethoxyquinazolin-4-ylamino)ethyl)phenyl)-3-phenylurea]		1 to 50 nM and < 1000 nM	< 100 nM
O=C(Nc1ccccc1)Nc1ccc(CCNc2ncnc3cc(F)ccc23)cc1 [Compound 253]	< 100 nM	51 to 450 nM and < 1000 nM	
CCN(CCO)CCCOc1ccc2c(NCCc3ccc(NC(=O)Nc4ccccc4)cc3)ncnc2c1 [Compound 203]		51 to 450 nM and < 1000 nM	
CN(C)CCCOc1ccc2c(NCCc3ccc(NC(=O)Nc4ccccc4)cc3)ncnc2c1 [Compound 202]		51 to 450 nM and < 1000 nM	
CN(C)CCCOc1ccc2c(NCCc3ccc(NC(=O)Nc4cccc(F)c4)cc3)ncnc2c1 [Compound 208]		< 1000 nM and 51 to 450 nM	
COc1cc2ncnc(NCCc3ccc(NC(=O)Nc4cc(F)cc(F)c4)cc3)c2cc1OC [Compound 245]		1 to 50 nM and < 1000 nM	
CN(C)CCCOc1ccc2c(NCCc3ccc(NC(=O)Nc4cccc(F)c4)cc3)ncnc2c1 [Compound 207]	101 to 850 nM	< 1000 nM and 51 to 450 nM	
COc1ccc2ncc(C#N)c(NCCc3ccc(NC(=O)Nc4ccccc4)cc3)c2c1 [Compound 231]	101 to 850 nM	51 to 450 nM and < 1000 nM	
COc1cc2ncc(C#N)c(NCCc3cnc(NC(=O)Nc4ccccc4)s3)c2cc1OC [Compound 227]		51 to 450 nM and < 1000 nM	
O=C(Nc1ccccc1)Nc1ccc(CCNc2ncnc3ccccc23)cc1 [Compound 248]		51 to 450 nM and < 1000 nM	< 100 nM
COc1cccc(NC(=O)Nc2ccc(CCNc3ncnc4cc(OC)c(OC)cc34)cc2)c1 [Compound 205]	101 to 850 nM	< 1000 nM and 51 to 450 nM	
COc1cc2ncnc(NCCc3ccc(NC(=O)Nc4cccc(F)c4)cc3)c2cc1OC [Compound 5, 1-{4-[2-(6,7-Dimethoxy-quinazolin-4-ylamino)-ethyl]-phenyl}-3-(3-fluoro-phenyl)-urea]	< 100 nM	< 1000 nM and 51 to 450 nM	
COc1cc2ncnc(NCCc3ccc(NC(=O)Nc4cc(F)cc(F)c4)cc3)c2cc1OC [Compound 244]	< 100 nM	1 to 50 nM and < 1000 nM	
O=C(Nc1ccccc1)Nc1ccc(CCNc2ncnc3oc(-c4ccc(O)cc4)nc23)cc1 [Compound 220]	101 to 850 nM	1 to 50 nM and < 1000 nM	
COc1cc2ncnc(NCCc3cnc(NC(=O)Nc4cccc(F)c4)s3)c2cc1OC [Compound 56]	101 to 850 nM	< 1000 nM and 51 to 450 nM	
COc1cc2ncnc(NCCc3ccc(Nc4nc5ccccc5[nH]4)cc3)c2cc1OC [Compound 224]	101 to 850 nM	1 to 50 nM and < 1000 nM	
COc1cc2ncc(C#N)c(NCCc3ccc(NC(=O)Nc4ccccc4)cc3)c2cc1OC [Compound 140]		< 1000 nM and 51 to 450 nM	
O=C(Nc1ccccc1)Nc1ccc(CCNc2ncnc3cc(OCCCCl)ccc23)cc1 [Compound 6, 1-(4-{2-[7-(3-Chloro-propoxy)-quinazolin-4-ylamino]-ethyl}-phenyl)-3-phenyl-urea]		< 1000 nM and 51 to 450 nM	
O=C(Nc1ccccc1)Nc1ccc(CCNc2ncnc3ccccc23)cc1 [Compound 249]		1 to 50 nM and < 1000 nM	
COc1cc2ncnc(N(C)CCc3ccc(NC(=O)Nc4ccccc4)cc3)c2cc1OC [Compound 240]	< 100 nM	51 to 450 nM and < 1000 nM	
COc1cc2ncnc(NCCc3cnc(NC(=O)Nc4cccc(Cl)c4)s3)c2cc1OC [Compound 228]	< 100 nM	1 to 50 nM and < 1000 nM	
COc1cc2ncnc(NCCc3ccc(NC(=O)NC4CC4)cc3)c2cc1OC [Compound 230]		< 1000 nM	

SMILES	IC50 ([1]; 96-h incubation, MTS)	IC50 [2]	IC50 [1]
O=C(Nc1ccccc1)Nc1ccc(CCNc2ncnc3oc(-c4ccncc4)nc23)cc1 [Compound 235]		1 to 50 nM and < 1000 nM	
O=C(Nc1ccccc1)Nc1ccc(CCNc2ncnc3oc(-c4ccccc4)nc23)cc1 [Compound 7, 1-Phenyl-3-{4-[2-(2-phenyl-oxazolo[5,4-d]pyrimidin-7-ylamino)-ethyl]-phenyl}-urea]	101 to 850 nM	< 1000 nM and 51 to 450 nM	
O=C(Nc1ccccc1)Nc1ccc(CCNc2ncnc3oc(-c4ccncc4)nc23)cc1 [Compound 236]	101 to 850 nM	51 to 450 nM and < 1000 nM	
O=C(Nc1ccccc1)Nc1ccc(CCNc2ncnc3cc(N4CCOCC4)ccc23)cc1 [Compound 251]	< 100 nM	1 to 50 nM and < 1000 nM	
O=C(Nc1ccccc1)Nc1ccc(CCNc2ncnc3oc(-c4cccnc4)nc23)cc1 [Compound 222]	101 to 850 nM	51 to 450 nM and < 1000 nM	
COc1cc2ncnc(NCCc3ccc(NC(=O)Nc4ccc(F)cc4)cc3)c2cc1OC [Compound 211]		1 to 50 nM and < 1000 nM	
COc1cc2ncnc(NCCc3ccc(NC(=O)Nc4ccc(F)cc4)cc3)c2cc1OC [Compound 210]	< 100 nM	1 to 50 nM and < 1000 nM	
N#Cc1cnc2ccsc2c1NCCc1cnc(NC(=O)Nc2cccc(Cl)c2)s1 [Compound 190, 1-(3-chlorophenyl)-3-(5-(2-(6-cyanothieno[3,2-b]pyridin-7-ylamino)ethyl)thiazol-2-yl)urea]		< 1000 nM and 51 to 450 nM	
COc1cc2ncnc(NCCc3ccc(NC(=O)Nc4ccc(F)c(F)c4)cc3)c2cc1OC [Compound 247]	101 to 850 nM	1 to 50 nM and < 1000 nM	
COc1cc2ncnc(OCCc3ccc(NC(=O)Nc4ccccc4)cc3)c2cc1OC [Compound 232]	101 to 850 nM	1 to 50 nM and < 1000 nM	
CCN(CCO)CCCOc1ccc2c(NCCc3ccc(NC(=O)Nc4cccc(F)c4)cc3)ncnc2c1 [Compound 22]	101 to 850 nM	< 1000 nM and 1 to 50 nM	
CCN(CCO)CCCOc1ccc2c(NCCc3ccc(NC(=O)Nc4cccc(F)c4)cc3)ncnc2c1 [Compound 209]		1 to 50 nM and < 1000 nM	
COc1cc2ncnc(NCCc3ccc(NC(=O)Nc4cccnc4)cc3)c2cc1OC [Compound 2, 1-{4-[2-(6,7-Dimethoxy-quinazolin-4-ylamino)-ethyl]-phenyl}-3-pyridin-3-yl-urea]	101 to 850 nM	< 1000 nM and 51 to 450 nM	
COc1cc2ncc(C#N)c(NCCc3ccc(NC(=O)NC4CC4)cc3)c2cc1OC [Compound 226]		51 to 450 nM and < 1000 nM	
CN(C)Cc1ccccc1NC(=O)Nc1ccc(CCNc2ncnc3oc(-c4ccccc4)nc23)cc1 [Compound 72]		< 1000 nM and 51 to 450 nM	
CCN(CCO)CCCOc1ccc2c(NCCc3ccc(NC(=O)Nc4ccccc4)cc3)ncnc2c1 [Compound 20]	< 100 nM	< 1000 nM and 1 to 50 nM	
COc1cc2ncc(C#N)c(NCCc3ccc(NC(=O)Nc4cccc(F)c4)cc3)c2cc1OC [Compound 225]	101 to 850 nM	51 to 450 nM and < 1000 nM	
O=C(Nc1ccccc1)Nc1ncc(CCNc2ncnc3oc(-c4ccccc4)nc23)s1 [Compound 81]		< 1000 nM and 51 to 450 nM	
COc1cc2ncnc(NCCc3ccc(NC(=O)Nc4ccccc4F)cc3)c2cc1OC [Compound 246]	101 to 850 nM	51 to 450 nM and < 1000 nM	
O=C(Nc1cccc(Cl)c1)Nc1ncc(CCNc2ncnc3oc(-c4ccccc4)nc23)s1 [Compound 242]		51 to 450 nM and < 1000 nM	
COc1ccc2c(NCCc3ccc(NC(=O)Nc4cccc(Cl)c4)cc3)c(C#N)cnc2c1 [Compound 213]	101 to 850 nM		
COc1cc2ncnc(NCCc3ccc(NC(=O)Nc4ccccc4)cc3)c2cc1OC [Compound 201]		1 to 50 nM and < 1000 nM	
O=C(Nc1cccc(F)c1)Nc1ncc(CCNc2ncnc3oc(-c4ccccc4)nc23)s1 [Compound 241]		51 to 450 nM and < 1000 nM	
